Consider 10 compounds from patent US20030161787A1, “Method for the identification of agents and genes influencing cardiovascular function” (priority 2000, published 2003).

Data set [1] deals with three-day old zebrafish larvae. Kind of data set: Induction of arrhythmic heart beat in three-day old zebrafish larvae by arrhythmia-inducing drugs. The conditions noted are these: low doses in medium; anaesthetized larvae, dissecting microscope.
Data set [2] has as its target HERG (human ether-a-gogo-related gene) (Homo sapiens, UniProt Q12809). The conditions noted are these: cited from earlier work.
Another data set has as its system zebrafish larvae. Description: Zebrafish larvae bathed in drug-containing medium; heart beat rate, contractility and blood flow monitored by microscope. The data set is classed as in vivo. The conditions noted are these: for effect on heart beat rate, contractility and blood flow: drug added to bathing medium, 2 d old larvae, 100 μM (FIG. 1) or increasing concentrations (FIG. 2); for effect on heart beat rate, contractility and blood flow (cardiac performance) of untreated fish: applied alone to the surrounding medium, 4 d old larvae (FIG. 4). The procedure: About 50 zebrafish larvae were incubated for 2-7 d at 22-28° C. in petri dishes filled with 30 ml embryo medium.
(§1) At the day of the experiment 10 larvae were transferred to small petri dishes filled with 10 ml embryo medium, 0.5 ml MESAB solution and 10 μl of the respective drug (or +10 μl of a second drug) added from a 1000-fold stock solution prepared with DMSO, these three components were previously mixed in 50 ml plastic tubes (controls only receive 10 μl DMSO).
(§2) At certain time points the contractility of the heart and blood flow was monitored, and the heart rate was determined by counting the heart beat with the aid of a stereo-microscope.

Data set [3] relates to nifedipine-treated zebrafish. Kind of data set: Reversal of nifedipine-induced effects on the heart of zebrafish larvae by a second drug. The data set is classed as in vivo. The procedure:
Similarely, putative anti-arrhythmic agents can be identified by studying heart beats of teleost larvae which were bathed prior to or simultaneous with the addition of the agents in a solution of an arrhythmia-inducing drug.
as §1, §2

Molecules are shown by their SMILES.

Chain of HERG (human ether-a-gogo-related gene) (Q12809 whole entry): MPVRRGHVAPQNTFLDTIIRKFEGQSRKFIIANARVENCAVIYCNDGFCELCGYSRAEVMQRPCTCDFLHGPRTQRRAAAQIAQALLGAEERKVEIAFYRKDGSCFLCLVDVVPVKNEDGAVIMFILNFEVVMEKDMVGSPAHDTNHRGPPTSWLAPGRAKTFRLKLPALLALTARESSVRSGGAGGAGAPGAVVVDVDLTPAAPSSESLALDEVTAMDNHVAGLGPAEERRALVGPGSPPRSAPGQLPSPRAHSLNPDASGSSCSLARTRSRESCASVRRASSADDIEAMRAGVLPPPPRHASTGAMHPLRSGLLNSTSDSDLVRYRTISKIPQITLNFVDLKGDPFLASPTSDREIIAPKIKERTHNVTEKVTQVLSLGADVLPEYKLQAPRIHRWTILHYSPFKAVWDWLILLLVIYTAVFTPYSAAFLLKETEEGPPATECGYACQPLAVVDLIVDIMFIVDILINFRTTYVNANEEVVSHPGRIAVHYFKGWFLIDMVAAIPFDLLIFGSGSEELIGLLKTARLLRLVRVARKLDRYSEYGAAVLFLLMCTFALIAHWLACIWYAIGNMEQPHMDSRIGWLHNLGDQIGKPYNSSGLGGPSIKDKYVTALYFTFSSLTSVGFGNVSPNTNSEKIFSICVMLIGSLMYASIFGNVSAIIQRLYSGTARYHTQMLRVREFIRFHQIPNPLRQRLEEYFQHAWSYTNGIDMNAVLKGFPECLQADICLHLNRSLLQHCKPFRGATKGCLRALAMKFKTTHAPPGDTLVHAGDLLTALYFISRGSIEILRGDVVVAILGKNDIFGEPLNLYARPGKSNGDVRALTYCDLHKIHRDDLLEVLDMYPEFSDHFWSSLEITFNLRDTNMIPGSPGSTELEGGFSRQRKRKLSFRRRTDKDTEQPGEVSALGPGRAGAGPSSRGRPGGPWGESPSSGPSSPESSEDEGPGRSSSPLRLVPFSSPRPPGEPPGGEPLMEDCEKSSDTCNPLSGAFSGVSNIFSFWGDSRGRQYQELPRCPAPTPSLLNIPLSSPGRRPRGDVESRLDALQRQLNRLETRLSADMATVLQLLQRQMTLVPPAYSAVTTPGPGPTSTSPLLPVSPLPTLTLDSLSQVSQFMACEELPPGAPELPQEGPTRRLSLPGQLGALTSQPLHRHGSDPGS

Take `O=C(CCCN1CCC(O)(c2ccc(Cl)cc2)CC1)c1ccc(F)cc1` [haloperidol]: in data set [1], the “larvae with induced arrhythmic heart beat” value is on record as ~100 % of larvae. Also, in data set [2], the “block of HERG” value is recorded as “high affinity block”. Turning to `COc1ccc(CCN2CCC(Nc3nc4ccccc4n3Cc3ccc(F)cc3)CC2)cc1` [astemizole], in data set [1], the “larvae with induced arrhythmic heart beat” value is reported as ~100 % of larvae.

Take `COc1cc(N)c(Cl)cc1C(=O)NC1CCN(CCCOc2ccc(F)cc2)CC1OC` (stereo not shown) [cisapride]: the “larvae with induced arrhythmic heart beat” value in data set [1] is on record as ~100 % of larvae. Besides, in data set [2], the “block of HERG” value is given as “high affinity block”. For `CC(C)NCC(O)COc1cccc2ccccc12` (stereo not shown) [propanolol], the “effect on heart beat rate, contractility and blood flow” value in the data set on zebrafish larvae was “decrease in heart beat rate, contractility and blood flow”. Take `CC(C)(C)c1ccc(C(O)CCCN2CCC(C(O)(c3ccccc3)c3ccccc3)CC2)cc1` (stereo not shown) [terfenadine]: in data set [1], the “larvae with induced arrhythmic heart beat” value is ~100 % of larvae. On to `COc1ccc(CCN(C)CCCC(C#N)(c2ccc(OC)c(OC)c2)C(C)C)cc1OC` (stereo not shown) [verapamil], for which, in the data set on zebrafish larvae, the “effect on heart beat rate, contractility and blood flow” value was “decrease in heart beat rate, contractility and blood flow”. Consider `O=C(CCCN1CC=C(n2c(=O)[nH]c3ccccc32)CC1)c1ccc(F)cc1` [droperidol], for which the “larvae with induced arrhythmic heart beat” value in data set [1] is ~100 % of larvae.

On to `CSc1ccc2c(c1)N(CCC1CCCCN1C)c1ccccc1S2` (stereo not shown) [thioridazine], for which the “larvae with induced arrhythmic heart beat” value in data set [1] is ~100 % of larvae. With `O=c1[nH]c2ccccc2n1C1CCN(CCCC(c2ccc(F)cc2)c2ccc(F)cc2)CC1` [pimozide], in data set [1], the “larvae with induced arrhythmic heart beat” value is given as ~100 % of larvae. For `COC(=O)C1=C(C)NC(C)=C([N+](=O)[O-])C1c1ccccc1C(F)(F)F` (racemic) [Bay K 8644, 1,4-dihydro-2,6-dimethyl-5-nitro-4-[2′-(trifluoromethyl)phenyl]-3-pyridinecarboxylic acid methyl ester], in data set [3] (arrest induced by 50 μM nifedipine for 1 h, added to bathing solution, 3 d old larvae (FIG. 5)), the “re-animation of larvae with arrest of the heart beat” value is recorded as “re-animated within minutes”. The “contractility of nifedipine-treated zebrafish” value in data set [3] (nifedipine-treated larvae (FIG. 3)) is reported as “strong increase in contractility”. In addition, in data set [3] (simultaneous addition with nifedipine, 4 d old larvae (FIG. 3)), the “blocking of the effects of nifedipine” value is on record as “completely blockable”. Besides, the “effect on heart beat rate, contractility and blood flow (cardiac performance) of untreated fish” value in the data set on zebrafish larvae was “nearly negligible effects”; in the data set with zebrafish larvae (listed as (+/−)Bay K 8644) it was “nearly no effect”.
